One experiment concerns the target T1, CD45 (Homo sapiens, UniProt P08575).
T1 sequence (P08575 26-1306): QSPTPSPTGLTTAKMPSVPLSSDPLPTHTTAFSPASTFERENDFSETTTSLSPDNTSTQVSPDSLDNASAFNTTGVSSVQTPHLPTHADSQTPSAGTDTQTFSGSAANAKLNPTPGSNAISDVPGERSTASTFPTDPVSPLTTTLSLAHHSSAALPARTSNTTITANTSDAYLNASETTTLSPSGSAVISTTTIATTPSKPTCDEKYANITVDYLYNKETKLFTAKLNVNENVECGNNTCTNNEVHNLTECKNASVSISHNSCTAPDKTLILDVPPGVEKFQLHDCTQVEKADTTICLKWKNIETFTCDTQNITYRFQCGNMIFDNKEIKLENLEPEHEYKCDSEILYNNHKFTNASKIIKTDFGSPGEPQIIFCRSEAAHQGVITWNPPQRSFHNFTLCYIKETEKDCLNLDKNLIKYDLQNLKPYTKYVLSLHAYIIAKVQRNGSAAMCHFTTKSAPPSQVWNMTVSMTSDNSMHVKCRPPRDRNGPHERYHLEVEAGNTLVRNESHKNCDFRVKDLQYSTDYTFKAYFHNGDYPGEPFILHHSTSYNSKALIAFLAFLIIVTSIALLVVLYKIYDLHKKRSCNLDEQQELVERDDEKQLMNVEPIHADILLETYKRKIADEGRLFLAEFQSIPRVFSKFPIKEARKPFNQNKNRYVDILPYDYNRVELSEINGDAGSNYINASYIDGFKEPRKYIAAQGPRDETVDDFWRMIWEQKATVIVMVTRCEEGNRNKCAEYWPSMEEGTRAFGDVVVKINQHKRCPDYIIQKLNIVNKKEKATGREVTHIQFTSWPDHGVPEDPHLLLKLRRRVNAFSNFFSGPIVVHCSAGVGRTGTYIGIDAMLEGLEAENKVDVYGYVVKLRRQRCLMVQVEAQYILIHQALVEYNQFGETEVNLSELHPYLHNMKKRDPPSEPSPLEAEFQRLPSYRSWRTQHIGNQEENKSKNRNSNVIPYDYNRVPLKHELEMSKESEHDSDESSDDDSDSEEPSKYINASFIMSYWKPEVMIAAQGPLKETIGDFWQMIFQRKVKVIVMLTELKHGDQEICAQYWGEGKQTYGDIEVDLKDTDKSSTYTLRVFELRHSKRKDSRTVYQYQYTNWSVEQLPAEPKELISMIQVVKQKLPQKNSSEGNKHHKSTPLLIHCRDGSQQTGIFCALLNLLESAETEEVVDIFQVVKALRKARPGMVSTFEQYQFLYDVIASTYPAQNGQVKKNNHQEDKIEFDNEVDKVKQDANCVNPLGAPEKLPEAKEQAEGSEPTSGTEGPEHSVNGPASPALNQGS
As to the kind of experiment: CD45 inhibitory activity. In kind it is biochemical.

For the next experiment, the target named is SHP1 (Homo sapiens, UniProt P29350). Nature of the experiment: SHP1 inhibitory activity. In kind it is biochemical.
In another experiment the target is T2, PTP1b (Homo sapiens, UniProt P18031).
T2 sequence (P18031 1-435): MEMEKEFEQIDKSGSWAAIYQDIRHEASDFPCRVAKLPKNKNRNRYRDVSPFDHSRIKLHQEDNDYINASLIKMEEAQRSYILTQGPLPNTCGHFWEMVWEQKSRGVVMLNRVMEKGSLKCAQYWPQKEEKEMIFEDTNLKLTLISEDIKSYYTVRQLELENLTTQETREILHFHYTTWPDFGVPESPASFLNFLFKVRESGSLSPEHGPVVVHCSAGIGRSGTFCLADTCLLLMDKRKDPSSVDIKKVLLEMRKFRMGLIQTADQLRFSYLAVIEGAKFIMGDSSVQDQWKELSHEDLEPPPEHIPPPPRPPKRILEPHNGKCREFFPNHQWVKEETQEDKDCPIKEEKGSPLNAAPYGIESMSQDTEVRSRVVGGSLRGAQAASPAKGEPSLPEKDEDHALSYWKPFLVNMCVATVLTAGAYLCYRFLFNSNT
As to the kind of experiment: Protein tyrosine phosphatase 1b inhibitory assay (pNPP substrate). The class given is biochemical. As to conditions: 37 °C, pH 6.0. How it is done: The PTP1b inhibitory activity of the tested compounds was measured at 37 °C using p-nitrophenyl phosphate (pNPP) as the substrate. The reaction was performed in a 96-well plate (final volume of 150 μL) and incubated for 30 min in the assay buffer (50 mM citrate (pH 6.0), 0.1 M NaCl, 1 mM EDTA, and 1 mM dithiothreitol) at 37 °C. Subsequently, the reaction was terminated by the addition of 10 M NaOH and the amount of p-nitrophenyl was determined by measuring the absorbance at 405 nm.

In experiment [1] the test system is insulin-stimulated glucose consumption. Further details: method as in PMID 23647825. Particulars: cited from earlier work.
The next experiment deals with nematode. As to the kind of experiment: anti-nematode activity.
For the next experiment, the system named is B. cereus. Also noted: method as in doi:10.1007/s10600-016-1885-z. Particulars: cited from earlier work.
In the next experiment the test system is S. aureus. Also noted: method as in doi:10.1007/s10600-016-1885-z. As to conditions: cited from earlier work.
A further experiment has as its system fungi. Further details: method as in PMID 23488669. As to conditions: cited from earlier work.

Where only a bound is given, the exact number is not on record here.

SHP1, sequence (P29350 whole entry): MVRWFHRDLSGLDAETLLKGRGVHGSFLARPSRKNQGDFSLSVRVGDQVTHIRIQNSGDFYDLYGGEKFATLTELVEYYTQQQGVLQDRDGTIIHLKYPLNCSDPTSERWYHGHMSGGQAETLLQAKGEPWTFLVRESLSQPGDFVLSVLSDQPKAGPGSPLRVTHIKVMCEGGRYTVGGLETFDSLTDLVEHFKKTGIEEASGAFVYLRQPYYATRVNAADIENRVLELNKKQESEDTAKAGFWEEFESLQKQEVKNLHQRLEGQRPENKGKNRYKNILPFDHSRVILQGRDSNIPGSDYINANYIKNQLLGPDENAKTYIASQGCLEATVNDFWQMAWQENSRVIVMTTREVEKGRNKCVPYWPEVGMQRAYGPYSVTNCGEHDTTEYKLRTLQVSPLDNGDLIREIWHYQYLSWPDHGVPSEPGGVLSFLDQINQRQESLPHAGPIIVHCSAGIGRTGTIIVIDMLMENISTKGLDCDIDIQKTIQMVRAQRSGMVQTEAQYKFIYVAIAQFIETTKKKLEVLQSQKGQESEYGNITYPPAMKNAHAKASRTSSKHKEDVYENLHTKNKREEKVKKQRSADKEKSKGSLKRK

A word on the IC50: it is the concentration needed to halve the response being measured. On to `CC(C)CCC[C@](C)(O)c1ccc(C(=O)O)cc1O` [N2, Sydonic acid], for which the values for the IC50 against CD45, against SHP1 and against PTP1b were over 20 µM, 8.35 ± 0.35 µM and 7.97 µM, respectively.
In the case of `CC(C)CCC[C@](C)(O)c1ccc(CO)cc1O` [(S)-(+)-sydonol], in experiment [1], the “effect on insulin-stimulated glucose consumption” value is recorded as “potentiated”.
As for `CC(C)C(O)CC[C@](C)(O)c1ccc(C(=O)O)cc1O` (stereo partly drawn) [N3, (7S)-(−)-10-Hydroxysydonic acid], the IC50 on CD45 is over 20 µM; with nematode, 50 µM; against SHP1 it was over 20 µM; against PTP1b, 15.88 ± 0.13 µM.
As for `CC(C)(O)CCCC(C)(O)c1ccc(C(=O)O)cc1O` (stereo in doubt) [N4, (R)-(−)-Hydroxysydonic acid], the IC50 is over 20 µM against CD45, 15.72 ± 0.11 µM at SHP1 and over 20 µM at PTP1b. In the experiment on B. cereus, the “MIC against B. cereus” value was “less than 25 μM”. Also, the “MIC against S. aureus” value with S. aureus was “less than 25 μM”.
As for `C[C@@H]1CCC/C=C/C=C/[C@H](O)C[C@@H](O)C/C=C\C=C\[C@@H](O)C/C=C/C=C\C(=O)O1` [N13, Macrolactin A], the IC50 at CD45 was 17.9 µM; against SHP1, 14.6 ± 0.39 µM; against PTP1b, over 20 µM. For the same molecule, in the experiment with fungi, the “antifungal activity MIC” value is 40 to 300 µM.
For `CC(C)CCCC(C)(O)c1ccc(C(=O)NC(CO)C(=O)O)cc1O` (centres unmarked) [N7, Serine sydonate], the values for the IC50 against CD45, against SHP1 and on PTP1b were 16 µM, 11.68 ± 0.08 µM and 14.2 ± 0.21 µM, respectively.
For `Cc1cc(O)cc(O)c1C(=O)O` [N1, Orsellinic acid], in that order: over 20 µM, over 20 µM and over 20 µM.
